{
  "source": "patent US20150056702A1",
  "about": "“METHOD AND KIT FOR CULTURING STEM CELLS” (China Medical University, priority 2013, published 2015)",
  "type_in_all_cases": "cell-based, mouse",
  "key": {"ES cells [1]": {"system": "ES cells", "assay": "Examination of cell survival (MTT assay)", "settings": "for relative cell survival rate: control = 100", "description": "The following steps were conducted in order to culture ES cells: • (1) preparing a stem cell medium: DMEM+15% heat-inactivated FBS+NEAA (0.1 mM)+L-glutamine (2 mM)+β-mercaptoethanol (0.2 mM); • (2) preparing a BP-containing solution: dissolving BP into DMSO to form a BP-containing solution (100 mg/ml), and storing the solution at −20° C.; • (3) adding different amounts of the BP-containing solution in step (2) into the stem cell medium in step (1) to form different BP-containing mediums, wherein the amount of BP were about 5, 10, 20 or 40 μg per milliliter of the stem cell medium respectively (i.e. the experimental group mediums: BP5, BP10, BP20 and BP40); and • (4) using the BP-containing medium of in step (3) to culture a ES cell (retrieved from the embryos in the blastula stage of 129sv/J mice) at 37° C., 5% CO2 and 95% humidity on the feeder cells provided by Example 1.\nIn this example, 3-(4,5-dimethylthiazol-2-yl)-2,5-diphenyl tetrazolium bromide (MTT) was used to determine if the cell survival rate of stem cells will be influenced when BP was served as a substitute for LIF.\nMTT is a water-soluble tetrazolium salt which can react in the mitochondrial respiratory chain in living cells, to metabolize and reduce the tetrazolium bromide shown in the structure of MTT and to form an water-insoluble purple crystal formazan under the reaction of succinate dehydrogenase (SDH) and cytochrome c (cyt c). The amount of the produced crystal is directly proportional to the number of living cells (because the SDH will disappear from dead cells and the MTT cannot be reduced). Furthermore, mitochondrium is an organelle in cells most sensitive to the environment, and thus, the MTT assay could serve as a marker of the survival rate of cells treated by a drug.\nAn experimental group medium (BP5, BP10, BP20 or BP40) and a control group medium (without BP) were added respectively into a 96-well micro-culture plate to culture ES cells with an initial density of 5×10^3 per well for 24 to 72 hours. Then, 10 μl of 0.5 mg/ml MTT (Sigma) was added into each well and the cells were incubated in an incubator at 37° C. and 5% CO2 for 2 to 4 hours. The medium was removed, and 100 μl of DMSO was added into each well and maintained at 37° C. for 10 minutes. The absorbances of the samples were measured at a wavelength of 570 nm to obtain the data of the experimental group (with BP) and control group (without BP). The absorbance of control group was served as a reference to calculate the relative cell survival rate of each experimental group."}, "ES cells [2]": {"system": "ES cells", "assay": "Embryoid body formation and differentiation of ES cells", "settings": "BP10 medium, ES cells passaged 3 times, Tuj1, α-SMA, Gata4 staining", "description": "The embryoid body formation and differentiation were also observed by immunofluorescence staining to observe the effect of BP on maintaining the pluripotency of ES cells.\n(§1) An experimental group medium (BP10) was used to culture ES cells with an initial density of 1×10^4 per well in a 6-well culture dish. The ES cells were passaged 3 times and incubated for another 2 to 3 days in the Ultra Low Cluster Plate (Costar) containing the embryoid body formation medium [DMEM+20% FBS+β-mercaptoethanol (1 mM)+1% L-glutamine+1% NEAA], and then the embryoid body formation was observed. The embryoid bodies were placed into another 24-well culture dish (5 to 6 embryoid bodies/well) and incubated for another 3 days. Next, immunofluorescence staining was conducted to detect cells with an anti-Tuj1 antibody (ectoderm marker), an anti-α-SMA antibody (mesoderm marker) and an anti-Gata4 antibody (endoderm marker)."}, "iPS cells [3]": {"system": "iPS cells", "assay": "AP staining and immunofluorescence staining of the generated iPS cells", "settings": "experimental group (T+P), BP10 medium", "description": "The AP activity of the obtained iPS cells was determined by AP staining. The expression levels of Nanog and SSEA1 as well as the embryoid body formation and differentiation were observed by immunofluorescence staining."}, "iPS cells [4]": {"system": "iPS cells", "assay": "Embryoid body formation and differentiation of the generated iPS cells", "settings": "iPS cells (T+P), BP10 medium, Tuj1, α-SMA, Gata4 staining", "description": "as §1\nIn addition, the iPS cells (T+P) were cultured by the steps shown in Example 7 to observe the embryoid body formation and differentiation."}},
  "data": [
    {"compound": "CCCC=C1OC(=O)c2ccccc21", "note": "[BP, n-butylidenephthalide]", "values": [
      {"measurement": "relative cell survival rate", "setting": "ES cells [1]; BP5 medium (about 5 μg BP/ml), 24 hours", "result": 95.212},
      {"measurement": "relative cell survival rate", "setting": "ES cells [1]; BP5 medium (about 5 μg BP/ml), 72 hours", "result": 99.816},
      {"measurement": "relative cell survival rate", "setting": "ES cells [1]; BP10 medium (about 10 μg BP/ml), 24 hours", "result": 98.092},
      {"measurement": "relative cell survival rate", "setting": "ES cells [1]; BP10 medium (about 10 μg BP/ml), 72 hours", "result": 93.848},
      {"measurement": "relative cell survival rate", "setting": "ES cells [1]; BP20 medium (about 20 μg BP/ml), 24 hours", "result": 95.076},
      {"measurement": "relative cell survival rate", "setting": "ES cells [1]; BP20 medium (about 20 μg BP/ml), 72 hours", "result": 92.399},
      {"measurement": "relative cell survival rate", "setting": "ES cells [1]; BP40 medium (about 40 μg BP/ml), 24 hours", "result": 97.550},
      {"measurement": "relative cell survival rate", "setting": "ES cells [1]; BP40 medium (about 40 μg BP/ml), 72 hours", "result": 90.128},
      {"measurement": "survival rate of stem cells", "setting": "ES cells [1]; addition of BP into the ES cell medium, result in words", "result": "will not affect the survival rate of stem cells"},
      {"measurement": "embryoid body formation and differentiation", "setting": "ES cells [2]", "result": "form an embryoid body and further differentiate into all three germ layer cells"},
      {"measurement": "expression levels of AP, Nanog and SSEA1 in the obtained iPS cells", "setting": "iPS cells [3]", "result": "higher expression levels of AP, Nanog, and SSEA1"},
      {"measurement": "embryoid body formation and differentiation of the iPS cells", "setting": "iPS cells [4]", "result": "can differentiate into three germ layer cells"}
    ]}
  ]
}
